Data from PubChem BioAssay (NCI).
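Exposure lasted 48 hours, with cells grown in 96-well plates and compounds tested at five concentrations. TGI: concentration producing complete growth inhibition.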

Assays:
Assay in all cases: growth of human tumour cells (NCI), 48 h
786-0 renal = test system: 786-0 renal
ACHN renal = test system: ACHN renal
CAKI-1 renal = test system: CAKI-1 renal
CCRF-CEM leukemia = test system: CCRF-CEM leukemia
COLO 205 colon = test system: COLO 205 colon
DU-145 prostate = test system: DU-145 prostate
EKVX NSCLC = test system: EKVX NSCLC
HCC-2998 colon = test system: HCC-2998 colon
HCT-116 colon = test system: HCT-116 colon
HL-60(TB) leukemia = test system: HL-60(TB) leukemia
HOP-62 NSCLC = test system: HOP-62 NSCLC
HOP-92 NSCLC = test system: HOP-92 NSCLC
HS 578T breast = test system: HS 578T breast
HT29 colon = test system: HT29 colon
IGROV1 ovarian = test system: IGROV1 ovarian
K-562 leukemia = test system: K-562 leukemia
KM12 colon = test system: KM12 colon
LOX IMVI melanoma = test system: LOX IMVI melanoma
M14 melanoma = test system: M14 melanoma
MALME-3M melanoma = test system: MALME-3M melanoma
MCF7 breast = test system: MCF7 breast
MDA-MB-231 breast = test system: MDA-MB-231 breast
MDA-MB-435 = test system: MDA-MB-435
MDA-N = test system: MDA-N
MOLT-4 leukemia = test system: MOLT-4 leukemia
NCI-H226 lung = test system: NCI-H226 lung
NCI-H23 lung = test system: NCI-H23 lung
NCI-H460 lung = test system: NCI-H460 lung
NCI-H522 lung = test system: NCI-H522 lung
NCI/ADR-RES ovarian = test system: NCI/ADR-RES ovarian
OVCAR-3 ovarian = test system: OVCAR-3 ovarian
OVCAR-4 ovarian = test system: OVCAR-4 ovarian
OVCAR-5 ovarian = test system: OVCAR-5 ovarian
OVCAR-8 ovarian = test system: OVCAR-8 ovarian
PC-3 prostate = test system: PC-3 prostate
RPMI-8226 leukemia = test system: RPMI-8226 leukemia
RXF 393 renal = test system: RXF 393 renal
SF-268 CNS = test system: SF-268 CNS
SF-539 CNS = test system: SF-539 CNS
SK-MEL-2 melanoma = test system: SK-MEL-2 melanoma
SK-MEL-28 melanoma = test system: SK-MEL-28 melanoma
SK-MEL-5 melanoma = test system: SK-MEL-5 melanoma
SK-OV-3 ovarian = test system: SK-OV-3 ovarian
SN12C renal = test system: SN12C renal
SNB-19 CNS = test system: SNB-19 CNS
SNB-75 CNS = test system: SNB-75 CNS
SR leukemia = test system: SR leukemia
SW-620 colon = test system: SW-620 colon
T-47D breast = test system: T-47D breast
TK-10 renal = test system: TK-10 renal
U251 CNS = test system: U251 CNS
UACC-62 melanoma = test system: UACC-62 melanoma
UO-31 renal = test system: UO-31 renal
A498 renal = test system: A498 renal
A549 NSCLC = test system: A549 NSCLC
BT-549 breast = test system: BT-549 breast
HCT-15 colon = test system: HCT-15 colon
SF-295 CNS = test system: SF-295 CNS
UACC-257 melanoma = test system: UACC-257 melanoma

With `CC1(C)COC(c2cccc(C(O)c3ccc(Cl)cc3)c2)=N1` (configuration not stated) the TGI (786-0 renal) was 59.8 µM, the TGI (ACHN renal) was > 100 µM and the TGI (CAKI-1 renal) was 87.1 µM. For the same molecule, the TGI (CCRF-CEM leukemia) was > 100 µM, the TGI (COLO 205 colon) was 34 µM and the TGI (DU-145 prostate) was > 100 µM. For the same molecule, the TGI (EKVX NSCLC) was > 100 µM, the TGI (HCC-2998 colon) was 64.7 µM and the TGI (HCT-116 colon) was 37.9 µM. For the same molecule, the TGI (HL-60(TB) leukemia) was > 100 µM, the TGI (HOP-62 NSCLC) was 88.6 µM and the TGI (HOP-92 NSCLC) was 59 µM. For the same molecule, the TGI (HS 578T breast) was > 100 µM, the TGI (HT29 colon) was 37.2 µM and the TGI (IGROV1 ovarian) was > 100 µM. The TGI (K-562 leukemia) was > 100 µM, the TGI (KM12 colon) was > 100 µM and the TGI (LOX IMVI melanoma) was 29.1 µM. The TGI (M14 melanoma) was 45.1 µM, the TGI (MALME-3M melanoma) was 59.9 µM and the TGI (MCF7 breast) was 39.6 µM. The TGI (MDA-MB-231 breast) was > 100 µM, the TGI (MDA-MB-435) was 67.3 µM and the TGI (MDA-N) was 70 µM. The TGI (MOLT-4 leukemia) was 59.3 µM, the TGI (NCI-H226 lung) was 33.5 µM and the TGI (NCI-H23 lung) was 64.1 µM. The TGI (NCI-H460 lung) was > 100 µM, the TGI (NCI-H522 lung) was > 100 µM and the TGI (NCI/ADR-RES ovarian) was 77.2 µM. For the same molecule, the TGI (OVCAR-3 ovarian) was 45.7 µM, the TGI (OVCAR-4 ovarian) was > 100 µM and the TGI (OVCAR-5 ovarian) was 45.5 µM. The TGI (OVCAR-8 ovarian) was 42.3 µM, the TGI (PC-3 prostate) was 53.8 µM and the TGI (RPMI-8226 leukemia) was 89.1 µM. The TGI (RXF 393 renal) was 37.8 µM, the TGI (SF-268 CNS) was 87.3 µM and the TGI (SF-539 CNS) was 42.5 µM. The TGI (SK-MEL-2 melanoma) was 47.5 µM, the TGI (SK-MEL-28 melanoma) was > 100 µM and the TGI (SK-MEL-5 melanoma) was 28.6 µM. The TGI (SK-OV-3 ovarian) was 65.1 µM, the TGI (SN12C renal) was 73.9 µM and the TGI (SNB-19 CNS) was > 100 µM. The TGI (SNB-75 CNS) was 60.5 µM, the TGI (SR leukemia) was > 100 µM and the TGI (SW-620 colon) was > 100 µM. For the same molecule, the TGI (T-47D breast) was 73.9 µM, the TGI (TK-10 renal) was 76.3 µM and the TGI (U251 CNS) was 59.6 µM. The TGI (UACC-62 melanoma) was 44.9 µM and the TGI (UO-31 renal) was 46.7 µM.

In the case of `CN1C(=O)C(O)CC1c1ccccc1F` (configuration not stated), the TGI (786-0 renal) is reported as > 100 µM, the TGI (A498 renal) is reported as > 100 µM and the TGI (A549 NSCLC) is reported as > 100 µM. For the same molecule, the TGI (ACHN renal) was > 100 µM, the TGI (BT-549 breast) was > 100 µM and the TGI (CAKI-1 renal) was > 100 µM. The TGI (CCRF-CEM leukemia) was > 100 µM, the TGI (COLO 205 colon) was > 100 µM and the TGI (DU-145 prostate) was > 100 µM. For the same molecule, the TGI (EKVX NSCLC) was > 100 µM, the TGI (HCC-2998 colon) was > 100 µM and the TGI (HCT-116 colon) was > 100 µM. For the same molecule, the TGI (HCT-15 colon) was > 100 µM, the TGI (HL-60(TB) leukemia) was > 100 µM and the TGI (HOP-62 NSCLC) was > 100 µM. For the same molecule, the TGI (HOP-92 NSCLC) was > 100 µM, the TGI (HT29 colon) was > 100 µM and the TGI (IGROV1 ovarian) was > 100 µM. For the same molecule, the TGI (K-562 leukemia) was > 100 µM, the TGI (KM12 colon) was > 100 µM and the TGI (LOX IMVI melanoma) was > 100 µM. The TGI (M14 melanoma) was > 100 µM, the TGI (MALME-3M melanoma) was > 100 µM and the TGI (MCF7 breast) was > 100 µM. The TGI (MDA-MB-231 breast) was > 100 µM, the TGI (MDA-MB-435) was > 100 µM and the TGI (MDA-N) was > 100 µM. The TGI (MOLT-4 leukemia) was > 100 µM, the TGI (NCI-H226 lung) was > 100 µM and the TGI (NCI-H23 lung) was > 100 µM. The TGI (NCI-H460 lung) was > 100 µM, the TGI (NCI-H522 lung) was > 100 µM and the TGI (NCI/ADR-RES ovarian) was > 100 µM. The TGI (OVCAR-3 ovarian) was > 100 µM, the TGI (OVCAR-4 ovarian) was > 100 µM and the TGI (OVCAR-5 ovarian) was > 100 µM. The TGI (OVCAR-8 ovarian) was > 100 µM, the TGI (PC-3 prostate) was > 100 µM and the TGI (RPMI-8226 leukemia) was > 100 µM. The TGI (RXF 393 renal) was > 100 µM, the TGI (SF-295 CNS) was > 100 µM and the TGI (SF-539 CNS) was > 100 µM. For the same molecule, the TGI (SK-MEL-2 melanoma) was > 100 µM, the TGI (SK-MEL-28 melanoma) was > 100 µM and the TGI (SK-MEL-5 melanoma) was > 100 µM. For the same molecule, the TGI (SN12C renal) was > 100 µM, the TGI (SNB-19 CNS) was > 100 µM and the TGI (SNB-75 CNS) was > 100 µM. For the same molecule, the TGI (SR leukemia) was > 100 µM, the TGI (SW-620 colon) was > 100 µM and the TGI (U251 CNS) was > 100 µM. For the same molecule, the TGI (UACC-257 melanoma) was > 100 µM, the TGI (UACC-62 melanoma) was > 100 µM and the TGI (UO-31 renal) was > 100 µM.
